Source: US11767322B2 (BRISTOL-MYERS SQUIBB COMPANY, priority 2020, dated 2023)
Where two headings read alike, the source gives them in different places.

Columns and labels:
[1] = system: MLKL phosphorylation in HT29-L23 human colorectal adenocarcinoma cells; assay: MLKL phosphorylation high-content assay; format: cell-based; conditions: necroptosis induced with TNFα, SMAC mimetic and Z-VAD, 6 h, maximal inhibition defined by Nec1s
[2] = target: GST-tagged PIK3Cδ in complex with PIK3R1 (Homo sapiens, UniProt O00329); assay: PI3Kδ HTRF binding assay; conditions: HTRF probe displacement, 1 h at rt; read-out: PIK3CD IC50
[3] = target: T1, His-GST-TVMV-hRIPK1(1-324) (Homo sapiens, UniProt Q13546); assay: biochemical; format: binding; conditions: HTRF probe displacement, 1 h at rt; read-out: RIPK1 IC50
T1 construct: The coding region of human RIPK1(1-324) flanked by NdeI site at 5′ end; made in house; host or cells: Spodoptera frugiperda Sf9 insect cells (baculovirus, Bac-to-Bac)
T1 sequence (Q13546 1-324): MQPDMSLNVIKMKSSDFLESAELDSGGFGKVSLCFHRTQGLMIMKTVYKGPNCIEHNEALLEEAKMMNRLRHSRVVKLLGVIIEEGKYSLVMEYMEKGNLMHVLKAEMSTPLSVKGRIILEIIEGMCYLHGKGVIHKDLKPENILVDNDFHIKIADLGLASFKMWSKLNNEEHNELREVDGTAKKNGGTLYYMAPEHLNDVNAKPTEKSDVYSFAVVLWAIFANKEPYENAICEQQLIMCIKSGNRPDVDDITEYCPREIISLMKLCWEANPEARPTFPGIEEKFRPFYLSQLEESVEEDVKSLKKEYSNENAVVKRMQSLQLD

[4] = read-out: pMLKL IC50, HT29-L23 cells
[5] = Homo sapiens, read-out: pMLKL IC50, HT29-L23 cells

Sequence of GST-tagged PIK3Cδ in complex with PIK3R1 (O00329 whole entry): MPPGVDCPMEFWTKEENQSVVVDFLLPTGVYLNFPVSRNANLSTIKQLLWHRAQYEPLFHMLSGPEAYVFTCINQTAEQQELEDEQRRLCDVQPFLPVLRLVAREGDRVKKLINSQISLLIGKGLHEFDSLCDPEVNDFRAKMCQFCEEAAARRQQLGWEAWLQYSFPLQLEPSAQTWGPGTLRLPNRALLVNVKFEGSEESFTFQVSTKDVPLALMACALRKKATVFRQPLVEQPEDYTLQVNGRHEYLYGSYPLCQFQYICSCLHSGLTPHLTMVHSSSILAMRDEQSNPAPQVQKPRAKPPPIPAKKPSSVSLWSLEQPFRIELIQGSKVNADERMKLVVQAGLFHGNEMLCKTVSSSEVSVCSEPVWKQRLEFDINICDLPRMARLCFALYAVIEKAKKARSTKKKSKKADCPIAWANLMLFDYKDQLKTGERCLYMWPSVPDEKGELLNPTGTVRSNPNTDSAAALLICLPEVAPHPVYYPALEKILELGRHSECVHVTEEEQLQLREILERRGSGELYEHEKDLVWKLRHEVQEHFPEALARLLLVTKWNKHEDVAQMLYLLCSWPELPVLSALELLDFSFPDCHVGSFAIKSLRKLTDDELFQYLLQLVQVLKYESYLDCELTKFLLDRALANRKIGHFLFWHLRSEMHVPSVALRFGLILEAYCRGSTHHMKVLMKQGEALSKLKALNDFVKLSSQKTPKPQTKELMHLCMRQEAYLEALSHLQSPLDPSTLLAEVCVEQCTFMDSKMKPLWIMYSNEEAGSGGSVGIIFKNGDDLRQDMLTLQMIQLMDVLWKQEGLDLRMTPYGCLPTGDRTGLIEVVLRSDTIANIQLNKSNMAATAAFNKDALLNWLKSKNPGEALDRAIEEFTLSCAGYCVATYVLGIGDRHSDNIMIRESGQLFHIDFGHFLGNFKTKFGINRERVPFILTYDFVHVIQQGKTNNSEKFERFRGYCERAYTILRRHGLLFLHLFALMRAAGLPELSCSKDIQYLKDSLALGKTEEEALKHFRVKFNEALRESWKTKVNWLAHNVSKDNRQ
Sequence of GST-tagged PIK3Cδ in complex with PIK3R1 (P27986 whole entry partner): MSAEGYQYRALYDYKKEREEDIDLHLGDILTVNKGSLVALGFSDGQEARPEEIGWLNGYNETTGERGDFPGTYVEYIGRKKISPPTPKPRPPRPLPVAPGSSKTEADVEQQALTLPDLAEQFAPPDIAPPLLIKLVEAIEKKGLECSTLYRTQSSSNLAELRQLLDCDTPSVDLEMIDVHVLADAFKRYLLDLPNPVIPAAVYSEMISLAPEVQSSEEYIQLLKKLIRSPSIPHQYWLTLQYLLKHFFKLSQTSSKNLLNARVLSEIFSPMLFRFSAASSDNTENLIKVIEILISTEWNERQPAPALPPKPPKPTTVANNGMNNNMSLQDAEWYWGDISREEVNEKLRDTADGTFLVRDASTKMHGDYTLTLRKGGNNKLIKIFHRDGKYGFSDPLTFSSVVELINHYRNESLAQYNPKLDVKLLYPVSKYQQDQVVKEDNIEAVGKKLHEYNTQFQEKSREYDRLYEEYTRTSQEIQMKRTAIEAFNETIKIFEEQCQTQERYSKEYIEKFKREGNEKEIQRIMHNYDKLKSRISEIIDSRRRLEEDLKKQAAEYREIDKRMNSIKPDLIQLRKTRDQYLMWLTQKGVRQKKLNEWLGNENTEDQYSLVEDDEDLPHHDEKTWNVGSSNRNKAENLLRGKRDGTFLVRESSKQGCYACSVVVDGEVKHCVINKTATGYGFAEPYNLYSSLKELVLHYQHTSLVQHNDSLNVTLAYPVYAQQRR

Structure (SMILES) | IC50 [1, 4] [nM] | IC50 [2] [nM] | IC50 [3] [nM] | IC50 [1, 5] [nM]
Cc1ccc(-c2ccn3nc(N)nc3c2)c(F)c1C(=O)NCC(F)(F)C(O)c1ccc(F)cn1 (stereo not drawn) [Example 269, 3-{2-amino-[1,2,4]triazolo[1,5-a]pyridin-7-yl}-N-[2,2-difluoro-3-(5-fluoropyridin-2-yl)-3-hydroxypropyl]-2-fluoro-6-methylbenzamide] | 1.5 | > 15000 | 4.6 | –
Cc1c(F)cc(-c2ccn3nc(N)nc3c2)cc1C(=O)NCC(F)(F)C(O)c1ccc(F)cc1 (single isomer, unassigned) [Example 231, 5-(2-amino-[1,2,4]triazolo[1,5-a]pyridin-7-yl)-N-(2,2-difluoro-3-(4-fluorophenyl)-3-hydroxypropyl)-3-fluoro-2-methylbenzamide] | 1.2 | > 15000 | 2 | –
Nc1nc2cc(-c3ccc(Cl)c(C(=O)NCC[C@H](O)c4ccc(Cl)cc4)c3F)ccn2n1 [Example 153, (S)-3-(2-amino-[1,2,4]triazolo[1,5-a]pyridin-7-yl)-6-chloro-N-(3-(4-chlorophenyl)-3-hydroxypropyl)-2-fluorobenzamide] | – | > 15000 | 4.1 | 8.3
Cc1ccc(-c2ccn3nc(N)nc3c2)c(F)c1C(=O)NC(C)CC(O)c1ccc(F)cc1 (single isomer, unassigned) [Example 36, 3-(2-amino-[1,2,4]triazolo[1,5-a]pyridin-7-yl)-2-fluoro-N-(4-(4-fluorophenyl)-4-hydroxybutan-2-yl)-6-methylbenzamide] | 2.7 | > 15000 | 4.5 | –
Cc1ccc(-c2ccn3nc(N)nc3c2)c(F)c1C(=O)NC(CF)CC(O)c1ccc(F)cc1 (single isomer, unassigned) [Example 25, 3-(2-amino-[1,2,4]triazolo[1,5-a]pyridin-7-yl)-2-fluoro-N-(1-fluoro-4-(4-fluorophenyl)-4-hydroxybutan-2-yl)-6-methylbenzamide] | 4.1 | > 15000 | 3.6 | –
Nc1nc2cc(-c3ccc(C(F)F)c(C(=O)NCC(F)(F)[C@@H](O)c4ccc(F)cc4)c3F)ccn2n1 [Example 295, (S)-3-(2-amino-[1,2,4]triazolo[1,5-a]pyridin-7-yl)-N-(2,2-difluoro-3-(4-fluorophenyl)-3-hydroxypropyl)-6-(difluoromethyl)-2-fluorobenzamide] | – | > 15000 | 3.3 | 1.4
Cc1ccc(-c2ccn3nc(N)nc3c2)c(F)c1C(=O)NCCC1(c2ccc(F)cc2)CC1 [Example 16, 3-(2-amino-[1,2,4]triazolo[1,5-a]pyridin-7-yl)-2-fluoro-N-(2-(1-(4-fluorophenyl)cyclopropyl)ethyl)-6-methylbenzamide] | – | > 15000 | 0.7 | 0.4
Nc1nc2cc(-c3ccc(Cl)c(C(=O)NCC(F)(F)C(O)c4ccc(Cl)c(Cl)n4)c3F)ccn2n1 (single isomer, unassigned) [Example 272, 3-(2-amino-[1,2,4]triazolo[1,5-a]pyridin-7-y)-6-chloro-N-(3-(5,6-dichloropyridin-2-yl)-2,2-difluoro-3-hydroxypropyl)-2-fluorobenzamide] | – | > 15000 | 6.8 | 11
[2H]C([2H])(CC([2H])(O)c1ccc(Cl)cc1)NC(=O)c1c(C)ccc(-c2ccn3nc(N)nc3c2)c1F (single isomer, unassigned) [Example 53, 3-(2-amino-[1,2,4]triazolo[1,5-a]pyridin-7-yl)-N-(3-(4-chlorophenyl)-3-hydroxypropyl-1,1,3-d3)-2-fluoro-6-methylbenzamide] | 0.9 | 14000 | 1.2 | –
Nc1nc2cc(-c3ccc(Cl)c(C(=O)NCC(F)(F)C(=O)c4ccc(F)cc4)c3F)ccn2n1 [Example 280, 3-(2-amino-[1,2,4]triazolo[1,5-a]pyridin-7-yl)-6-chloro-N-(2,2-difluoro-3-(4-fluorophenyl)-3-oxopropyl)-2-fluorobenzamide] | – | 11000 | 15 | 1.4
Cc1c(F)cc(-c2ccn3nc(N)nc3c2)cc1C(=O)NCC(F)(F)C(O)c1ccc(F)cc1 (single isomer, unassigned) [Example 232, 5-(2-amino-[1,2,4]triazolo[1,5-a]pyridin-7-yl)-N-(2,2-difluoro-3-(4-fluorophenyl)-3-hydroxypropyl)-3-fluoro-2-methylbenzamide] | 3 | > 15000 | 4.5 | –
Nc1nc2cc(-c3ccc(Cl)c(C(=O)NCC(F)(F)C(O)c4ccc(Cl)c(F)c4)c3F)ccn2n1 (stereo not drawn) [Example 191] | 1.4 | > 15000 | 2.6 | –
Cc1ccc(-c2ccn3nc(N)nc3c2)c(F)c1C(=O)NC(C)CC(O)c1ccc(F)cc1 (stereo not drawn) [Example 35, 3-(2-amino-[1,2,4]triazolo[1,5-a]pyridin-7-yl)-2-fluoro-N-(4-(4-fluorophenyl)-4-hydroxybutan-2-yl)-6-methylbenzamide] | – | 3900 | 2 | 0.9
Cc1ccc(-c2ccn3nc(N)nc3c2)c(F)c1C(=O)NCC(F)(F)C(O)c1ccc(Cl)cc1 (stereo not drawn) [Example 29, 3-(2-amino-[1,2,4]triazolo[1,5-a]pyridin-7-yl)-N-(3-(4-chlorophenyl)-2,2-difluoro-3-hydroxypropyl)-2-fluoro-6-methylbenzamide] | – | > 15000 | 2.2 | 0.7
CCc1ccc(-c2ccn3nc(N)nc3c2)c(F)c1C(=O)NCC[C@@H](O)c1ccc(Cl)cc1 [Example 156, (R)-3-(2-amino-[1,2,4]triazolo[1,5-a]pyridin-7-yl)-N-(3-(4-chlorophenyl)-3-hydroxypropyl)-6-ethyl-2-fluorobenzamide] | – | > 15000 | 5.8 | 0.8
Cc1ccc(-c2ccn3nc(N)nc3c2)c(F)c1C(=O)NCC(F)(F)C(C)(O)c1ccc(Cl)cc1 (single isomer, unassigned) [Example 221, 3-(2-amino-[1,2,4]triazolo[1,5-a]pyridin-7-yl)-N-(3-(4-chlorophenyl)-2,2-difluoro-3-hydroxybutyl)-2-fluoro-6-methylbenzamide] | – | > 15000 | 3.2 | 0.9
Cc1c(C(=O)NC(C)CC(O)c2ccc(Cl)cc2)cc(-c2ccn3nc(N)nc3c2)c(F)c1F (racemic) [Example 101, 5-(2-amino-[1,2,4]triazolo[1,5-a]pyridin-7-yl)-N-(4-(4-chlorophenyl)-4-hydroxybutan-2-yl)-3,4-difluoro-2-methylbenzamide] | 2.9 | > 15000 | 4.8 | –
CC(O)(c1ccc(Cl)cc1)C(F)(F)CNC(=O)c1c(Cl)ccc(-c2ccn3nc(N)nc3c2)c1F (single isomer, unassigned) [Example 224, 3-(2-amino-[1,2,4]triazolo[1,5-a]pyridin-7-yl)-6-chloro-N-(3-(4-chlorophenyl)-2,2-difluoro-3-hydroxybutyl)-2-fluorobenzamide] | 4.1 | > 15000 | 5.2 | –
Nc1nc2cc(-c3ccc(Cl)c(C(=O)NCC(F)(F)C(O)c4ccc(Cl)c(Cl)c4)c3F)ccn2n1 (single isomer, unassigned) [Example 264, 3-{2-amino-[1,2,4]triazolo[1,5-a]pyridin-7-yl}-6-chloro-N-[3-(3,4-dichlorophenyl)-2,2-difluoro-3-hydroxypropyl]-2-fluorobenzamide] | 1 | > 15000 | 6.2 | –
